Entries after “also recorded” stand apart in the source; their conditions may differ.
Experiments:
AXL = target: T1, AXL (Homo sapiens, UniProt P30530); assay: KINOMEscan; type: binding; settings: read-out: %Ctrl @ 1000 nM
T1 construct: purchased DiscoveRx KINOMEscan

EIF2AK1 = target: T2, EIF2AK1 (Homo sapiens, UniProt Q9BQI3); assay: KINOMEscan; type: binding; settings: read-out: %Ctrl @ 1000 nM
T2 construct: purchased DiscoveRx KINOMEscan

NEK3 = target: T3, NEK3 (Homo sapiens, UniProt P51956); assay: KINOMEscan; type: binding; settings: read-out: %Ctrl @ 1000 nM
T3 construct: purchased DiscoveRx KINOMEscan
T3 sequence (P51956 whole entry): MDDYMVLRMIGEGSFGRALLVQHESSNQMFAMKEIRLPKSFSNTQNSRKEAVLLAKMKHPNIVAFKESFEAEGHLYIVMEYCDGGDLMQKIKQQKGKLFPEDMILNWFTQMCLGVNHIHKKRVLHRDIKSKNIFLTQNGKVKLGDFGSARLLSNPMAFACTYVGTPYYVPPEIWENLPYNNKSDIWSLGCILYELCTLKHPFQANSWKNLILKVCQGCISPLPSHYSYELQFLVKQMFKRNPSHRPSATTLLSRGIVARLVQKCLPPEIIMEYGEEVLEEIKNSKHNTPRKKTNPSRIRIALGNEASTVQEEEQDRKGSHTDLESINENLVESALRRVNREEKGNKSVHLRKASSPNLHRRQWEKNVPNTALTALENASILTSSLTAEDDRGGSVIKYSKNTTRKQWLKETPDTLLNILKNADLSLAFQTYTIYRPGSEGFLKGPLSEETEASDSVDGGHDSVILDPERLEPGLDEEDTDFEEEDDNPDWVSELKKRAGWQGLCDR

[1] = Metabolic stability in rat hepatocytes; type: in vitro ADME; settings: read-out: CL (CLblood) (converted)
Protocol: Liver cells were distributed in Williams’ medium E containing 5% fetal calf serum (FCS) to glass vials at a density of 1.0 × 10^6 vital cells/mL. The test compound was added to a final concentration of 1 μM. During incubation, the hepatocyte suspensions were continuously shaken and aliquots were taken at 2, 8, 16, 30, 45, and 90 min, to which an equal volume of cold MeOH was immediately added. Samples were frozen at −20 °C overnight, then centrifuged (15 min, 3000 rpm), and the supernatant was analyzed with an Agilent 1200 HPLC system with LC-MS/MS detection. The half-life of a test compound was determined from the concentration–time plot. The intrinsic clearances were calculated from the half-life, together with additional parameters (liver blood flow, quantity of liver cells in vivo and in vitro).

[2] = target: T4, RSK3(Kin.Dom.1-N-terminal) (Homo sapiens, UniProt Q15349); assay: KINOMEscan; type: binding; settings: read-out: %Ctrl @ 1000 nM
T4 construct: RSK3(Kin.Dom.1-N-terminal); purchased DiscoveRx KINOMEscan
T4 sequence (Q15349 59-388 limits assumed): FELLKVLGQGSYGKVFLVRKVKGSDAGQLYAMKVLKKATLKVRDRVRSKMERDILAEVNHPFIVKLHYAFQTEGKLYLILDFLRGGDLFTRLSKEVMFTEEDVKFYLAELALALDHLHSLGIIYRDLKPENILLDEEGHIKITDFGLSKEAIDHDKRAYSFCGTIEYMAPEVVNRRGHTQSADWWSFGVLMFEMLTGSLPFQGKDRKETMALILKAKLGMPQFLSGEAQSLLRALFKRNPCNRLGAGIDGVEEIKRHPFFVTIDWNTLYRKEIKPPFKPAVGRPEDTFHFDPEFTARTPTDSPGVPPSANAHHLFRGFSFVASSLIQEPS

SMYD2 = SMYD2 (Homo sapiens, UniProt Q9NRG4); assay: Mechanism-of-inhibition studies (SPA, Cheng-Prusoff); type: biochemical; set-up: The SMYD2 full-length enzyme with an N-terminal 6xHis tag was expressed in Escherichia coli; made in house; host or cells: Escherichia coli
Chain of SMYD2 (Q9NRG4 whole entry): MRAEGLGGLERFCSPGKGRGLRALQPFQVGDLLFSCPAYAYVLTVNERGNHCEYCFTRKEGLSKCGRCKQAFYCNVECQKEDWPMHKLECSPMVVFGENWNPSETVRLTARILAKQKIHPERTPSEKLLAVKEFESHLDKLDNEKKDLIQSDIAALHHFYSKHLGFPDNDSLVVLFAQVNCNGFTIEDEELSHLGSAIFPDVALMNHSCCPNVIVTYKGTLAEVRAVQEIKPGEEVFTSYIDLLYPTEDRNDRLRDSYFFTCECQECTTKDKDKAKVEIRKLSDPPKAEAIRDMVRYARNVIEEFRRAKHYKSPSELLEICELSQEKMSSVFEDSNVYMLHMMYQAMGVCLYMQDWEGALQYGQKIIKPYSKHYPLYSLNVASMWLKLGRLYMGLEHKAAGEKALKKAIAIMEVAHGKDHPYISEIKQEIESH

HIPK3 = target: T5, HIPK3 (Homo sapiens, UniProt Q9H422); assay: KINOMEscan; type: binding; settings: read-out: %Ctrl @ 1000 nM
T5 construct: purchased DiscoveRx KINOMEscan

DAPK1 = target: T6, DAPK1 (Homo sapiens, UniProt P53355); assay: KINOMEscan; type: binding; settings: read-out: %Ctrl @ 1000 nM
T6 construct: purchased DiscoveRx KINOMEscan

[3] = target: T7, EGFR(L747-S752del, P753S) (Homo sapiens, UniProt P00533, DEL747-752/P753S); assay: KINOMEscan; type: binding; settings: read-out: %Ctrl @ 1000 nM
T7 construct: purchased DiscoveRx KINOMEscan

WNK1 = target: T8, WNK1 (Homo sapiens, UniProt Q9H4A3); assay: KINOMEscan; type: binding; settings: read-out: %Ctrl @ 1000 nM
T8 construct: purchased DiscoveRx KINOMEscan

SGK2 = target: T9, SGK2 (Homo sapiens, UniProt Q9HBY8); assay: KINOMEscan; type: binding; settings: read-out: %Ctrl @ 1000 nM
T9 construct: purchased DiscoveRx KINOMEscan

MARK4 = target: T10, MARK4 (Homo sapiens, UniProt Q96L34); assay: KINOMEscan; type: binding; settings: read-out: %Ctrl @ 1000 nM
T10 construct: purchased DiscoveRx KINOMEscan

YANK1 = target: T11, YANK1 (Homo sapiens, UniProt Q8WU08); assay: KINOMEscan; type: binding; settings: read-out: %Ctrl @ 1000 nM
T11 construct: purchased DiscoveRx KINOMEscan

p38-gamma = target: T12, p38-gamma (Homo sapiens, UniProt P53778); assay: KINOMEscan; type: binding; settings: read-out: %Ctrl @ 1000 nM
T12 construct: purchased DiscoveRx KINOMEscan

KIT(V559D,V654A) = target: T13, KIT(V559D,V654A) (Homo sapiens, UniProt P10721, V559D/V654A); assay: KINOMEscan; type: binding; settings: read-out: %Ctrl @ 1000 nM
T13 construct: purchased DiscoveRx KINOMEscan
T13 sequence (P10721 26-976 V559D/V654A): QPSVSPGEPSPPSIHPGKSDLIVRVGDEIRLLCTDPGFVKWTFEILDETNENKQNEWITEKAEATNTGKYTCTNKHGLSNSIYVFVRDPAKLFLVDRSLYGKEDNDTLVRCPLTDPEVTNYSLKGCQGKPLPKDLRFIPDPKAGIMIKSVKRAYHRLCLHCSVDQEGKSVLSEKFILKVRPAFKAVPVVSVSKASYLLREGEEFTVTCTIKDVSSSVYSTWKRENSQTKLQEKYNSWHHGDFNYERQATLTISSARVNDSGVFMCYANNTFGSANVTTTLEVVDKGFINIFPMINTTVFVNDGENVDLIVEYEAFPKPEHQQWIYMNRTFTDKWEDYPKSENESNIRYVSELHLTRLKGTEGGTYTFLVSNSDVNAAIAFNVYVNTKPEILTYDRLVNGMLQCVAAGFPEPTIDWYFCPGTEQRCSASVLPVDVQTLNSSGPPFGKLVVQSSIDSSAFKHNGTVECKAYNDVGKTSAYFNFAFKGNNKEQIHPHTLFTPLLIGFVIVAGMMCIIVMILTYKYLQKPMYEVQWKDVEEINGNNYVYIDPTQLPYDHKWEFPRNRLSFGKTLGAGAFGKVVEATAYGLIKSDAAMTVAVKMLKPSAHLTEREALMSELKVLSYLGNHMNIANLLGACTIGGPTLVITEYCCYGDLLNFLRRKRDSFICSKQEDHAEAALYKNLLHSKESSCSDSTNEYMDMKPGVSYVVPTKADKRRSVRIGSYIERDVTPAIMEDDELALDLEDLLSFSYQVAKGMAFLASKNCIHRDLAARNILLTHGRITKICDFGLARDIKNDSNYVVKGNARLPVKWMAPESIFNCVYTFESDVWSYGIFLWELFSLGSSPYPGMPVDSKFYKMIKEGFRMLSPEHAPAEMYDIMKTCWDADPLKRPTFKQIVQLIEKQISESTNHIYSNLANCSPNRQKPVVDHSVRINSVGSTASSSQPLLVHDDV

ERN1 = target: T14, ERN1 (Homo sapiens, UniProt O75460); assay: KINOMEscan; type: binding; settings: read-out: %Ctrl @ 1000 nM
T14 construct: purchased DiscoveRx KINOMEscan

CDK2 = target: T15, CDK2 (Homo sapiens, UniProt P24941); assay: KINOMEscan; type: binding; settings: read-out: %Ctrl @ 1000 nM
T15 construct: purchased DiscoveRx KINOMEscan

TAOK2 = target: T16, TAOK2 (Homo sapiens, UniProt Q9UL54); assay: KINOMEscan; type: binding; settings: read-out: %Ctrl @ 1000 nM
T16 construct: purchased DiscoveRx KINOMEscan

PAK3 = target: T17, PAK3 (Homo sapiens, UniProt O75914); assay: KINOMEscan; type: binding; settings: read-out: %Ctrl @ 1000 nM
T17 construct: purchased DiscoveRx KINOMEscan

SNARK = target: T18, SNARK (Homo sapiens, UniProt Q9H093); assay: KINOMEscan; type: binding; settings: read-out: %Ctrl @ 1000 nM
T18 construct: purchased DiscoveRx KINOMEscan
T18 sequence (Q9H093 whole entry): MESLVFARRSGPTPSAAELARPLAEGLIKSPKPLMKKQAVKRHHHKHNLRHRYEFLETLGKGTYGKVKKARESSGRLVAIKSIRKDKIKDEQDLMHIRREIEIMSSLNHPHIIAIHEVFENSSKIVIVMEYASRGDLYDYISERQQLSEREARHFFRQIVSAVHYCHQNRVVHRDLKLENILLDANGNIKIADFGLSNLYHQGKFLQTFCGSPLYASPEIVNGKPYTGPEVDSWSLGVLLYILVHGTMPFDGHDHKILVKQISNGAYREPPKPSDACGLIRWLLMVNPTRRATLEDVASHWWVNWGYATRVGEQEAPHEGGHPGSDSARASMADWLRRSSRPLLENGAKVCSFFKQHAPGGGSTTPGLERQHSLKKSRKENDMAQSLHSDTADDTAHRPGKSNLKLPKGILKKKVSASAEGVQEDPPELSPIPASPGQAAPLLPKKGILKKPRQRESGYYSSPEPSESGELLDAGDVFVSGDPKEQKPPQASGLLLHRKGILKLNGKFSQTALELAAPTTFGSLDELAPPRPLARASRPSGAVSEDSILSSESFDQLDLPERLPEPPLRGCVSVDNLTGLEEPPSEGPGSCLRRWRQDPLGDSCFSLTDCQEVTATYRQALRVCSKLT

PIP5K1C = target: T19, PIP5K1C (Homo sapiens, UniProt O60331); assay: KINOMEscan; type: binding; settings: read-out: %Ctrl @ 1000 nM
T19 construct: purchased DiscoveRx KINOMEscan

[4] = target: T20, RSK2(Kin.Dom.1-N-terminal) (Homo sapiens, UniProt P51812); assay: KINOMEscan; type: binding; settings: read-out: %Ctrl @ 1000 nM
T20 construct: RSK2(Kin.Dom.1-N-terminal); purchased DiscoveRx KINOMEscan

EPHA4 = target: T21, EPHA4 (Homo sapiens, UniProt P54764); assay: KINOMEscan; type: binding; settings: read-out: %Ctrl @ 1000 nM
T21 construct: purchased DiscoveRx KINOMEscan

NEK10 = target: T22, NEK10 (Homo sapiens, UniProt Q6ZWH5); assay: KINOMEscan; type: binding; settings: read-out: %Ctrl @ 1000 nM
T22 construct: purchased DiscoveRx KINOMEscan

CAMK2A = target: T23, CAMK2A (Homo sapiens, UniProt Q9UQM7); assay: KINOMEscan; type: binding; settings: read-out: %Ctrl @ 1000 nM
T23 construct: purchased DiscoveRx KINOMEscan

SRPK3 = target: T24, SRPK3 (Homo sapiens, UniProt Q9UPE1); assay: KINOMEscan; type: binding; settings: read-out: %Ctrl @ 1000 nM
T24 construct: purchased DiscoveRx KINOMEscan

BMPR1B = target: T25, BMPR1B (Homo sapiens, UniProt O00238); assay: KINOMEscan; type: binding; settings: read-out: %Ctrl @ 1000 nM
T25 construct: purchased DiscoveRx KINOMEscan

MTOR = target: T26, MTOR (Homo sapiens, UniProt P42345); assay: KINOMEscan; type: binding; settings: read-out: %Ctrl @ 1000 nM
T26 construct: purchased DiscoveRx KINOMEscan

NLK = target: T27, NLK (Homo sapiens, UniProt Q9UBE8); assay: KINOMEscan; type: binding; settings: read-out: %Ctrl @ 1000 nM
T27 construct: purchased DiscoveRx KINOMEscan

SRPK1 = target: T28, SRPK1 (Homo sapiens, UniProt Q96SB4); assay: KINOMEscan; type: binding; settings: read-out: %Ctrl @ 1000 nM
T28 construct: purchased DiscoveRx KINOMEscan

KIT(D816H) = target: T29, KIT(D816H) (Homo sapiens, UniProt P10721, D816H); assay: KINOMEscan; type: binding; settings: read-out: %Ctrl @ 1000 nM
T29 construct: purchased DiscoveRx KINOMEscan
T29 sequence (P10721 26-976 D816H): as the sequence (P10721 26-976 V559D/V654A) above, with D534V, A629V, D791H counted along it

MAK = target: T30, MAK (Homo sapiens, UniProt P20794); assay: KINOMEscan; type: binding; settings: read-out: %Ctrl @ 1000 nM
T30 construct: purchased DiscoveRx KINOMEscan

PIK3CA(Q546K) = target: T31, PIK3CA(Q546K) (Homo sapiens, UniProt P42336, Q546K); assay: KINOMEscan; type: binding; settings: read-out: %Ctrl @ 1000 nM
T31 construct: purchased DiscoveRx KINOMEscan

STK16 = target: T32, STK16 (Homo sapiens, UniProt O75716); assay: KINOMEscan; type: binding; settings: read-out: %Ctrl @ 1000 nM
T32 construct: purchased DiscoveRx KINOMEscan
T32 sequence (O75716 whole entry): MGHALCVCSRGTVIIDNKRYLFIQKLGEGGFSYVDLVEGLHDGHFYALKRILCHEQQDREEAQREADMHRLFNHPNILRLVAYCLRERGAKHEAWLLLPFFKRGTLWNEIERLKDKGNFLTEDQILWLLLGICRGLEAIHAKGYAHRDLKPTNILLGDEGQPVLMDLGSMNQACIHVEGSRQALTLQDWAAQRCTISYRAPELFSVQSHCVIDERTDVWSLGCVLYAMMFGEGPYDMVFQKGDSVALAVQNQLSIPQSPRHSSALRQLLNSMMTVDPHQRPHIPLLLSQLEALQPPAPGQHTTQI

ACVR2B = target: T33, ACVR2B (Homo sapiens, UniProt Q13705); assay: KINOMEscan; type: binding; settings: read-out: %Ctrl @ 1000 nM
T33 construct: purchased DiscoveRx

TRKB = target: T34, TRKB (Homo sapiens, UniProt Q16620); assay: KINOMEscan; type: binding; settings: read-out: %Ctrl @ 1000 nM
T34 construct: purchased DiscoveRx KINOMEscan
T34 sequence (Q16620 32-822): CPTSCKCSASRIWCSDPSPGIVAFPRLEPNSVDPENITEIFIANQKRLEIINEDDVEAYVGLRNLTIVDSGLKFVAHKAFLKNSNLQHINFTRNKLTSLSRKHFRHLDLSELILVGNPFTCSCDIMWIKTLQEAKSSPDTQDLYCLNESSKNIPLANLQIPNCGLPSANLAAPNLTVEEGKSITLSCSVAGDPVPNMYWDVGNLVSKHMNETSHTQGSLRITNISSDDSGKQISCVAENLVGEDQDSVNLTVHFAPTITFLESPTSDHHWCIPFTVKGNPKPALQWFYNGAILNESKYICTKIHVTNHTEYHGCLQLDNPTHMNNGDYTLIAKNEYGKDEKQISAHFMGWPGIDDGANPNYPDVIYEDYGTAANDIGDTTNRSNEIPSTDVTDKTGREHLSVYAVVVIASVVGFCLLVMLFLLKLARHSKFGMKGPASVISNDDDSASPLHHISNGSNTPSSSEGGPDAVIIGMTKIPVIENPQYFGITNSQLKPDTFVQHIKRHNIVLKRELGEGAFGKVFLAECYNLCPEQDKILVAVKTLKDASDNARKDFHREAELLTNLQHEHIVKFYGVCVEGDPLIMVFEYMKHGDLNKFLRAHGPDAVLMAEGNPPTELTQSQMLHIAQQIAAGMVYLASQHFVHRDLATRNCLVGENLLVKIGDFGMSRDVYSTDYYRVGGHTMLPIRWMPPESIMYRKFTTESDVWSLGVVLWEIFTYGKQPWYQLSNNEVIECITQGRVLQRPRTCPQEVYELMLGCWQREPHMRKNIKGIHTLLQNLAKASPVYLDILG

T1 sequence (P30530 26-894): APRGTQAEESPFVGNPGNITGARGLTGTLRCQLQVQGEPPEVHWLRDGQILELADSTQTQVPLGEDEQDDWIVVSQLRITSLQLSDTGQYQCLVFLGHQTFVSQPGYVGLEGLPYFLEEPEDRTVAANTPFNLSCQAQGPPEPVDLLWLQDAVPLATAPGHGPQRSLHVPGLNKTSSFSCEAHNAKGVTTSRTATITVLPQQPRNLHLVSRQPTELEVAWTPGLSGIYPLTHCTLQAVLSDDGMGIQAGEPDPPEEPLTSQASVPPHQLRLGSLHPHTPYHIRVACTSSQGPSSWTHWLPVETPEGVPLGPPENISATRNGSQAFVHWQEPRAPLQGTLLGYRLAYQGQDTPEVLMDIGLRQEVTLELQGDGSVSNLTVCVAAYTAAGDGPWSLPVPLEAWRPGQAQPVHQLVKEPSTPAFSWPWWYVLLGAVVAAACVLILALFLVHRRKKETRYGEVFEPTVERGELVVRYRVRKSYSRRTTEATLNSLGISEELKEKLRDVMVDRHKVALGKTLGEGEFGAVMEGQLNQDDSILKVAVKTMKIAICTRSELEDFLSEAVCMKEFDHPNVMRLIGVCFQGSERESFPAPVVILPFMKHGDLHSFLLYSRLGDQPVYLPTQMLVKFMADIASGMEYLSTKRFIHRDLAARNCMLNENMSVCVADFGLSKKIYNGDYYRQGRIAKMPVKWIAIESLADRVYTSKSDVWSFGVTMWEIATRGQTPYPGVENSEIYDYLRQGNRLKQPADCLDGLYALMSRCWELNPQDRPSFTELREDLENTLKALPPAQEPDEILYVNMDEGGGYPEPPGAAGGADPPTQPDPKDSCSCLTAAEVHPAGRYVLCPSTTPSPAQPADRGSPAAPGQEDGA

Which results are given for `CCN(C(=O)CO)[C@H]1CN(/C(=N\C#N)Nc2cccc(OC(F)F)c2)N=C1c1ccc(Cl)c(Cl)c1` [(S)-4]?
remaining binding at 1 µM (AXL): 91%; remaining binding at 1 µM (EIF2AK1): 100%; remaining binding at 1 µM (NEK3): 95%; CLhep predicted at […], 1 µM [1]: 41.7 mL/min/kg; remaining binding at 1 µM [2]: 91%; Mode of inhibition / mode of action (SMYD2): peptide-competitive, SAM-uncompetitive inhibitor; also recorded: substrate competitive; remaining binding at 1 µM (HIPK3): 100%; remaining binding at 1 µM (DAPK1): 100%; remaining binding at 1 µM [3]: 86%; remaining binding at 1 µM (WNK1): 100%; remaining binding at 1 µM (SGK2): 100%; remaining binding at 1 µM (MARK4): 75%; remaining binding at 1 µM (YANK1): 77%; remaining binding at 1 µM (p38-gamma): 70%; remaining binding at 1 µM (KIT(V559D,V654A)): 100%; remaining binding at 1 µM (ERN1): 93%; remaining binding at 1 µM (CDK2): 100%; remaining binding at 1 µM (TAOK2): 91%; remaining binding at 1 µM (PAK3): 100%; remaining binding at 1 µM (SNARK): 100%; remaining binding at 1 µM (PIP5K1C): 86%; remaining binding at 1 µM [4]: 99%; remaining binding at 1 µM (EPHA4): 90%; remaining binding at 1 µM (NEK10): 100%; remaining binding at 1 µM (CAMK2A): 100%; remaining binding at 1 µM (SRPK3): 79%; remaining binding at 1 µM (BMPR1B): 100%; remaining binding at 1 µM (MTOR): 100%; remaining binding at 1 µM (NLK): 100%; remaining binding at 1 µM (SRPK1): 57%; remaining binding at 1 µM (KIT(D816H)): 95%; remaining binding at 1 µM (MAK): 74%; remaining binding at 1 µM (PIK3CA(Q546K)): 86%; remaining binding at 1 µM (STK16): 84%; remaining binding at 1 µM (ACVR2B): 100%; remaining binding at 1 µM (TRKB): 100%

From paper PMC4917279 (Journal of Medicinal Chemistry, 2016)
